Data from ChEMBL document CHEMBL1201861, “Genomics of Drug Sensitity in Cancer screening data, Wellcome Trust Sanger Institute”.

Legend:
Test in all cases: cells
Conditions in all cases: Homo sapiens
[1] = tested on: Ca-Ski; type: functional, cell-based;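 further: cell viability assay measuring inhibition of Ca-Ski cell growth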
Description: SANGER: Inhibition of human Ca-Ski cell growth in a cell viability assay.

[2] = tested on: Ca9-22; type: functional, cell-based;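 further: growth inhibition of Ca9-22 cells, read out with a cell viability assay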
Description: SANGER: Inhibition of human Ca9-22 cell growth in a cell viability assay.

[3] = tested on: EFO-21; type: functional, cell-based;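 further: growth inhibition of EFO-21 cells measured with a viability assay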
Description: SANGER: Inhibition of human EFO-21 cell growth in a cell viability assay.

[4] = tested on: GAMG; type: functional, cell-based;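 further: cell growth inhibition measured by a viability assay in the GAMG human cell line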
Description: SANGER: Inhibition of human GAMG cell growth in a cell viability assay.

[5] = tested on: GCT; type: functional, cell-based;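 further: GCT cell line proliferation inhibition, read out with a cell viability assay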
Description: SANGER: Inhibition of human GCT cell growth in a cell viability assay.

[6] = tested on: GMS-10; type: functional, cell-based;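 further: growth inhibition of GMS-10 cells, read out as cell viability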
Description: SANGER: Inhibition of human GMS-10 cell growth in a cell viability assay.

[7] = tested on: HCC1806; type: functional, cell-based;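 further: growth inhibition of the cancer cell line, determined with a cell viability assay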
Description: SANGER: Inhibition of human HCC1806 cell growth in a cell viability assay.

[8] = tested on: HGC-27; type: functional, cell-based;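 further: growth inhibition of human HGC-27 cells, read out in a cell viability assay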
Description: SANGER: Inhibition of human HGC-27 cell growth in a cell viability assay.

[9] = tested on: HT-29; type: functional, cell-based;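 further: growth inhibition of human HT-29 cells, read out by a cell viability assay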
Description: SANGER: Inhibition of human HT-29 cell growth in a cell viability assay.

[10] = tested on: HTC-C3; type: functional, cell-based;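 further: inhibition of cell growth, read out with a cell viability assay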
Description: SANGER: Inhibition of human HTC-C3 cell growth in a cell viability assay.

[11] = tested on: HuO-3N1; type: functional, cell-based;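 further: cell viability readout used to measure how strongly compounds suppress proliferation of human HuO-3N1 cells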
Description: SANGER: Inhibition of human HuO-3N1 cell growth in a cell viability assay.

[12] = tested on: HuP-T3; type: functional, cell-based;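 further: HuP-T3 cell growth inhibition, read out with a cell viability assay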
Description: SANGER: Inhibition of human HuP-T3 cell growth in a cell viability assay.

[13] = tested on: J82; type: functional, cell-based;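 further: growth inhibition of J82 cells, read out with a cell viability assay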
Description: SANGER: Inhibition of human J82 cell growth in a cell viability assay.

[14] = tested on: JEG-3; type: functional, cell-based;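 further: growth inhibition of human JEG-3 cells, read out with a cell viability assay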
Description: SANGER: Inhibition of human JEG-3 cell growth in a cell viability assay.

[15] = tested on: KYSE-410; type: functional, cell-based;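 further: growth inhibition of KYSE-410 cells, measured through a cell viability readout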
Description: SANGER: Inhibition of human KYSE-410 cell growth in a cell viability assay.

[16] = tested on: KYSE-450; type: functional, cell-based;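 further: cell growth inhibition measured by a viability assay in human KYSE-450 cells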
Description: SANGER: Inhibition of human KYSE-450 cell growth in a cell viability assay.

[17] = tested on: KYSE-510; type: functional, cell-based;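 further: cell viability readout used to measure how strongly growth of the cell line is suppressed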
Description: SANGER: Inhibition of human KYSE-510 cell growth in a cell viability assay.

[18] = tested on: LK-2; type: functional, cell-based;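 further: growth inhibition of LK-2 cells, read out with a viability assay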
Description: SANGER: Inhibition of human LK-2 cell growth in a cell viability assay.

[19] = tested on: MKN-1; type: functional, cell-based;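 further: growth inhibition of human MKN1 cells, read out by a cell viability measurement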
Description: SANGER: Inhibition of human MKN1 cell growth in a cell viability assay.

[20] = tested on: NB17; type: functional, cell-based;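 further: growth inhibition of NB17 cells, read out with a cell viability assay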
Description: SANGER: Inhibition of human NB17 cell growth in a cell viability assay.

[21] = tested on: NCI-H1792; type: functional, cell-based;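 further: growth inhibition of human NCI-H1792 cells, read out as cell viability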
Description: SANGER: Inhibition of human NCI-H1792 cell growth in a cell viability assay.

[22] = tested on: NCI-H2405; type: functional, cell-based;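 further: growth inhibition of the human cell line, read out with a cell viability assay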
Description: SANGER: Inhibition of human NCI-H2405 cell growth in a cell viability assay.

[23] = tested on: NCI-H292; type: functional, cell-based;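 further: growth inhibition of NCI-H292 cells, read out with a cell viability assay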
Description: SANGER: Inhibition of human NCI-H292 cell growth in a cell viability assay.

[24] = tested on: NCI-H727; type: functional, cell-based;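 further: growth inhibition of human NCI-H727 cells, read out with a cell viability assay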
Description: SANGER: Inhibition of human NCI-H727 cell growth in a cell viability assay.

[25] = tested on: NCI-N87; type: functional, cell-based;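 further: growth inhibition of human NCI-N87 cells, read out with a cell viability assay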
Description: SANGER: Inhibition of human NCI-N87 cell growth in a cell viability assay.

[26] = tested on: OE19; type: functional, cell-based;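 further: growth inhibition of OE19 cells, measured through a cell viability read-out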
Description: SANGER: Inhibition of human OE19 cell growth in a cell viability assay.

[27] = tested on: PA-1; type: functional, cell-based;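 further: IC50 for suppression of PA-1 cell proliferation, determined with a cell viability read-out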
Description: SANGER: Inhibition of human PA-1 cell growth in a cell viability assay.

[28] = tested on: RCM-1; type: functional, cell-based;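 further: growth inhibition of the RCM-1 line, determined with a cell viability readout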
Description: SANGER: Inhibition of human RCM-1 cell growth in a cell viability assay.

[29] = tested on: RD; type: functional, cell-based
Description: SANGER: Inhibition of human RD cell growth in a cell viability assay.

[30] = tested on: RPMI-7951; type: functional, cell-based
Description: SANGER: Inhibition of human RPMI-7951 cell growth in a cell viability assay.

[31] = tested on: SAS; type: functional, cell-based;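 further: growth inhibition of SAS cells, read out with a cell viability assay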
Description: SANGER: Inhibition of human SAS cell growth in a cell viability assay.

[32] = tested on: SCC-25; type: functional, cell-based;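 further: growth inhibition of SCC-25 cells, measured with a cell viability assay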
Description: SANGER: Inhibition of human SCC-25 cell growth in a cell viability assay.

[33] = tested on: SK-HEP1; type: functional, cell-based, SK-HEP-1;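 further: cell viability readout used to quantify reduction in proliferation of human SK-HEP-1 cells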
Description: SANGER: Inhibition of human SK-HEP-1 cell growth in a cell viability assay.

[34] = tested on: SW1417; type: functional, cell-based;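 further: growth inhibition of human SW1417 cells, read out with a cell viability assay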
Description: SANGER: Inhibition of human SW1417 cell growth in a cell viability assay.

[35] = tested on: SW1710; type: functional, cell-based;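 further: growth inhibition of SW1710 cells, determined with a cell viability assay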
Description: SANGER: Inhibition of human SW1710 cell growth in a cell viability assay.

[36] = tested on: ABC-1; type: functional, cell-based;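 further: growth inhibition of human ABC-1 cells, read out by a cell viability assay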
Description: SANGER: Inhibition of human ABC-1 cell growth in a cell viability assay.

[37] = tested on: BPH-1; type: functional, cell-based;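 further: cell viability assay measuring growth inhibition of human BPH-1 cells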
Description: SANGER: Inhibition of human BPH-1 cell growth in a cell viability assay.

[38] = tested on: C-33-A; type: functional, cell-based;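 further: cell viability assay measuring growth inhibition of C-33-A cells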
Description: SANGER: Inhibition of human C-33-A cell growth in a cell viability assay.

[39] = tested on: CAL-120; type: functional, cell-based;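 further: cell growth inhibition, read out as cell viability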
Description: SANGER: Inhibition of human CAL-120 cell growth in a cell viability assay.

[40] = tested on: CAL-39; type: functional, cell-based;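 further: cell viability assay measuring growth inhibition of CAL-39 cells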
Description: SANGER: Inhibition of human CAL-39 cell growth in a cell viability assay.

[41] = tested on: U2OS; type: functional, cell-based, U-2-OS;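 further: growth inhibition of human U-2-OS cells, determined with a cell viability assay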
Description: SANGER: Inhibition of human U-2-OS cell growth in a cell viability assay.

[42] = tested on: U-251; type: functional, cell-based;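 further: growth inhibition of human U-251 cells, read out through a cell viability assay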
Description: SANGER: Inhibition of human U251 cell growth in a cell viability assay.

[43] = tested on: UMUC3; type: functional, cell-based;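 further: growth inhibition of human UM-UC-3 cells, read out with a cell viability assay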
Description: SANGER: Inhibition of human UM-UC-3 cell growth in a cell viability assay.

[44] = tested on: YKG-1; type: functional, cell-based;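 further: cell growth inhibition, read out with a viability assay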
Description: SANGER: Inhibition of human YKG-1 cell growth in a cell viability assay.

[45] = tested on: COLO-678; type: functional, cell-based
Description: SANGER: Inhibition of human COLO-678 cell growth in a cell viability assay.

[46] = tested on: HCC1954; type: functional, cell-based;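 further: growth inhibition of human HCC1954 cells, read out with a cell viability assay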
Description: SANGER: Inhibition of human HCC1954 cell growth in a cell viability assay.

[47] = tested on: Huh-7; type: functional, cell-based;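 further: HuH-7 cell growth inhibition, read out with a cell viability assay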
Description: SANGER: Inhibition of human HuH-7 cell growth in a cell viability assay.

[48] = tested on: SK-MEL3; type: functional, cell-based, SK-MEL-3;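 further: growth inhibition of human SK-MEL-3 cells, read out with a cell viability assay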
Description: SANGER: Inhibition of human SK-MEL-3 cell growth in a cell viability assay.

[49] = tested on: SNU-449; type: functional, cell-based
Description: SANGER: Inhibition of human SNU-449 cell growth in a cell viability assay.

[50] = tested on: CAL-72; type: functional, cell-based;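 further: cell viability assay measuring inhibition of proliferation in the CAL-72 cell line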
Description: SANGER: Inhibition of human CAL-72 cell growth in a cell viability assay.

[51] = tested on: TGW; type: functional, cell-based;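 further: growth inhibition of human TGW cells, read out with a cell viability assay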
Description: SANGER: Inhibition of human TGW cell growth in a cell viability assay.

CC[C@@]1(O)C(=O)OCc2c1cc1n(c2=O)Cc2cc3ccccc3nc2-1 [CAMPTOTHECIN]
IC50 [1]: 4.97 nM | IC50 [2]: 2.21 nM | IC50 [3]: 20.3 nM | IC50 [4]: 1.53 nM | IC50 [5]: 5.02 nM | IC50 [6]: 7.31 nM | IC50 [7]: 3.14 nM | IC50 [8]: 4.07 nM | IC50 [9]: 85.5 nM | IC50 [10]: 31.5 nM | IC50 [11]: 12.7 nM | IC50 [12]: 36.4 nM | IC50 [13]: 4.72 nM | IC50 [14]: 13.1 nM | IC50 [15]: 78.1 nM | IC50 [16]: 23.7 nM | IC50 [17]: 6.75 nM | IC50 [18]: 35.5 nM | IC50 [19]: 37.9 nM | IC50 [20]: 2.18 nM | IC50 [21]: 40.1 nM | IC50 [22]: 58.5 nM | IC50 [23]: 2.24 nM | IC50 [24]: > 100 nM | IC50 [25]: 8.74 nM | IC50 [26]: > 100 nM | IC50 [27]: 0.981 nM | IC50 [28]: 28.7 nM | IC50 [29]: 15.7 nM | IC50 [30]: 4.75 nM | IC50 [31]: 1.24 nM | IC50 [32]: 56.7 nM | IC50 [33]: 7.25 nM | IC50 [34]: 52.7 nM | IC50 [35]: 33.6 nM | IC50 [36]: 3.47 nM | IC50 [37]: 2.08 nM | IC50 [38]: 6.48 nM | IC50 [39]: > 100 nM | IC50 [40]: 19.2 nM | IC50 [41]: 13.5 nM | IC50 [42]: 1.87 nM | IC50 [43]: 3.09 nM | IC50 [44]: 5.45 nM | IC50 [45]: > 100 nM

C[C@]12O[C@H](C[C@]1(O)CO)n1c3ccccc3c3c4c(c5c6ccccc6n2c5c31)CNC4=O [LESTAURTINIB]
IC50 [1]: > 2000 nM | IC50 [2]: 900 nM | IC50 [3]: > 2000 nM | IC50 [4]: 382 nM | IC50 [5]: 327 nM | IC50 [6]: 463 nM | IC50 [7]: 127 nM | IC50 [46]: > 2000 nM | IC50 [8]: 190 nM | IC50 [9]: 666 nM | IC50 [10]: 186 nM | IC50 [47]: > 2000 nM | IC50 [11]: 605 nM | IC50 [12]: 966 nM | IC50 [13]: > 2000 nM | IC50 [14]: 730 nM | IC50 [15]: 1410 nM | IC50 [16]: > 2000 nM | IC50 [17]: > 2000 nM | IC50 [18]: 428 nM | IC50 [19]: > 2000 nM | IC50 [20]: 382 nM | IC50 [21]: 880 nM | IC50 [22]: 1820 nM | IC50 [23]: 91.4 nM | IC50 [24]: 768 nM | IC50 [25]: > 2000 nM | IC50 [26]: > 2000 nM | IC50 [27]: 140 nM | IC50 [28]: 1590 nM | IC50 [29]: > 2000 nM | IC50 [30]: 318 nM | IC50 [31]: 958 nM | IC50 [32]: 758 nM | IC50 [33]: 31.3 nM | IC50 [48]: 160 nM | IC50 [49]: > 2000 nM | IC50 [34]: 1170 nM | IC50 [35]: 128 nM | IC50 [36]: > 2000 nM | IC50 [37]: 1300 nM | IC50 [38]: > 2000 nM | IC50 [39]: 336 nM | IC50 [40]: 481 nM | IC50 [50]: > 2000 nM | IC50 [41]: 82.9 nM | IC50 [42]: > 2000 nM | IC50 [43]: 1150 nM | IC50 [44]: 325 nM | IC50 [45]: > 2000 nM

CC(=O)c1c(C)c2cnc(Nc3ccc(N4CCNCC4)cn3)nc2n(C2CCCC2)c1=O [PALBOCICLIB]
IC50 [1]: > 4000 nM | IC50 [2]: > 4000 nM | IC50 [3]: > 4000 nM | IC50 [4]: 2590 nM | IC50 [5]: > 4000 nM | IC50 [6]: > 4000 nM | IC50 [7]: > 4000 nM | IC50 [46]: > 4000 nM | IC50 [8]: 565 nM | IC50 [9]: > 4000 nM | IC50 [10]: 433 nM | IC50 [47]: > 4000 nM | IC50 [11]: > 4000 nM | IC50 [12]: > 4000 nM | IC50 [14]: > 4000 nM | IC50 [15]: > 4000 nM | IC50 [16]: > 4000 nM | IC50 [17]: > 4000 nM | IC50 [18]: > 4000 nM | IC50 [20]: > 4000 nM | IC50 [21]: > 4000 nM | IC50 [22]: > 4000 nM | IC50 [23]: 2850 nM | IC50 [24]: > 4000 nM | IC50 [25]: > 4000 nM | IC50 [26]: > 4000 nM | IC50 [27]: 510 nM | IC50 [28]: > 4000 nM | IC50 [29]: > 4000 nM | IC50 [30]: 2760 nM | IC50 [31]: 2200 nM | IC50 [32]: > 4000 nM | IC50 [33]: 2590 nM | IC50 [48]: > 4000 nM | IC50 [49]: > 4000 nM | IC50 [34]: > 4000 nM | IC50 [35]: 2070 nM | IC50 [36]: 1790 nM | IC50 [37]: > 4000 nM | IC50 [38]: > 4000 nM | IC50 [39]: > 4000 nM | IC50 [40]: 1080 nM | IC50 [50]: > 4000 nM | IC50 [51]: 1120 nM | IC50 [41]: 3730 nM | IC50 [42]: 814 nM | IC50 [44]: 1810 nM | IC50 [45]: > 4000 nM
